Experimental data taken from patent publication US7030265B2, “Retinol derivatives, the method of preparations and the uses thereof” (Chebigen, Inc., priority 2001, dated 2006).

What was measured:
Assay type in all cases: cell-based
HCT116 (colon cancer) = assay: Cell toxicity test (living cell count); conditions: HCT116 cells, 0, 500, 1000, 5000 nM, 4 days, FIG. 1
Description: (§1) The cell line utilized for cell toxicity test of retinal derivatives were SK-Hep-1(liver cancer), MDA-MB-231 (breast cancer), HaCAT (skin cancer), and HCT116 (colon cancer). Those cell lines were maintained and cultured in DMEM (Dulbecco's Modified Eagle's Medium)/10% FBS containing 10% fetal bovine serum (FBS) (GibcoBRL, Gaithersburg, Md.). 3×10^3 cells, 100 μl media per well were distribute into 96 well microtiter plate and cultured for 24 hours. Each cultured cell lines were treated with various concentrations of retinal derivatives (0, 500, 1000, 5000 nM) for 4 days and living cells were counted with hemocytometer to measure the inhibition effect of cell proliferation.
(§2) The retinal derivatives utilized for the experiments were retinol-(N-formyl-aspartam), retinol, 4-HPR[N-(4-hydroxyphenyl)retineamide] (Sigma Co., St. Louis, Mo.). Those derivatives were eluted in dimethylsulfoxide and the concentration of dimethylsulfoxide added into culture media was kept at not over 0.01%.

HaCAT (skin cancer) = assay: Cell toxicity test (living cell count); conditions: HaCAT cells, 0, 500, 1000, 5000 nM, 4 days, FIG. 1
Description: as §1, §2

[1] = test system: MDA-MB-231 (breast cancer); assay: Cell toxicity test (living cell count); conditions: MDA-MB-231 cells, 0, 500, 1000, 5000 nM, 4 days, FIG. 1
Description: as §1, §2

SK-Hep-1 (liver cancer) = assay: Cell toxicity test (living cell count); conditions: SK-Hep-1 cells, 0, 500, 1000, 5000 nM, 4 days, FIG. 1
Description: as §1, §2

retinoid X receptor α = biological target: T1, retinoid X receptor α (Homo sapiens, UniProt P19793); assay: RXR activity test, DR1-tk-CAT reporter in HaCAT cells; conditions: 1 μM, CAT ELISA, FIG. 2 (B)
T1 construct: expressed in transfected cells; host or cells: HaCAT
T1 sequence (P19793 1-462): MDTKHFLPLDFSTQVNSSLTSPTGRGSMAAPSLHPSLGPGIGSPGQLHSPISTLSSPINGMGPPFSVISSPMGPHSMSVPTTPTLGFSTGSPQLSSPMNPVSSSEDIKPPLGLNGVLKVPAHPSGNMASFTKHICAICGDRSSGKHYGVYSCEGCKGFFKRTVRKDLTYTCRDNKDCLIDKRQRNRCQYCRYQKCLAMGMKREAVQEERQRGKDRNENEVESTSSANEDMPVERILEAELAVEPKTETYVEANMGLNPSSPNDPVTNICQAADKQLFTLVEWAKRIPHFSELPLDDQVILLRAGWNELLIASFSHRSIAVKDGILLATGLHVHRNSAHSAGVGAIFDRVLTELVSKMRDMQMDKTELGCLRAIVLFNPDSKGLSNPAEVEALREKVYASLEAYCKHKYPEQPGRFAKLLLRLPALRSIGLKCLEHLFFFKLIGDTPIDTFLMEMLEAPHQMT
Source text: (§3) To analyze the effects of retinol-(N-formyl-aspartam) on the activity of retinoic acid receptor, skin cancer (HaCAT) cell lines were utilized to measure the activity of retinoic acid receptor/retinoid X receptor.
(§4) Recombinant DNA, DR5-tk-CAT or DR1-tk-CAT consisting of DR1 or DR5, effectors of retinoic acid receptor/retinoid X receptor, thymine kinase promoter, and CAT(chloramphenicol acetyl transferase) were mixed with the plasmid DNA expressing retinoic acid receptor α, β, ? or retinoid X receptor α, β, ? to cotransfect skin cancer (HaCAT) cell line with lipofectamine (GibcoBRL). The cotransfected cell lines were cultured for 1 day on DMEM/10% FBS media, each retinol derivatives (1 μM) were added and cultured for one more day, 5% CO2, 37° C. The cells were washed with phosphate-buffered saline (PBS), and the proteins were isolated from each cells, and the activity of β-galactosidase and protein contents were measured to determine transfection efficacy, the transcription level of RAR or RXR receptor were measured with CAT ELISA (Roche Molecular Biochemical, Mannheim, Germany).

retinoid X receptor β = biological target: T2, retinoid X receptor β (Homo sapiens, UniProt P28702); assay: as above; conditions: 1 μM, CAT ELISA, FIG. 2 (B)
T2 construct: expressed in transfected cells; host or cells: HaCAT
T2 sequence (P28702 1-533): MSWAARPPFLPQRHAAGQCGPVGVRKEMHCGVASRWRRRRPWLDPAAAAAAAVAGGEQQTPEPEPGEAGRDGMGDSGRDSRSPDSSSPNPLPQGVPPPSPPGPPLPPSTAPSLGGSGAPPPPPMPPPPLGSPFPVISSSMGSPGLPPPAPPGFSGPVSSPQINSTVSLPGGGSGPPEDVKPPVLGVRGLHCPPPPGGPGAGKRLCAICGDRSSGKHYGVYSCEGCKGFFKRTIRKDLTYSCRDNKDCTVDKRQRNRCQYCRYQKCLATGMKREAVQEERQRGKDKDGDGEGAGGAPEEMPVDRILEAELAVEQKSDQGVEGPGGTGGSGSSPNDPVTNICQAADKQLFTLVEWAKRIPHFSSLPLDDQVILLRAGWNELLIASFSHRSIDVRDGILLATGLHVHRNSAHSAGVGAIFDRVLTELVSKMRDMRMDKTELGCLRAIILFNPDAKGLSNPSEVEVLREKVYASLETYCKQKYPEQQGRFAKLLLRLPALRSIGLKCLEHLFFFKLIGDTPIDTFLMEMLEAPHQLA
Source text: as §3, §4

retinoid X receptor γ = biological target: T3, retinoid X receptor γ (Homo sapiens, UniProt P48443); assay: as above; conditions: 1 μM, CAT ELISA, FIG. 2 (B)
T3 construct: expressed in transfected cells; host or cells: HaCAT
T3 sequence (P48443 1-463): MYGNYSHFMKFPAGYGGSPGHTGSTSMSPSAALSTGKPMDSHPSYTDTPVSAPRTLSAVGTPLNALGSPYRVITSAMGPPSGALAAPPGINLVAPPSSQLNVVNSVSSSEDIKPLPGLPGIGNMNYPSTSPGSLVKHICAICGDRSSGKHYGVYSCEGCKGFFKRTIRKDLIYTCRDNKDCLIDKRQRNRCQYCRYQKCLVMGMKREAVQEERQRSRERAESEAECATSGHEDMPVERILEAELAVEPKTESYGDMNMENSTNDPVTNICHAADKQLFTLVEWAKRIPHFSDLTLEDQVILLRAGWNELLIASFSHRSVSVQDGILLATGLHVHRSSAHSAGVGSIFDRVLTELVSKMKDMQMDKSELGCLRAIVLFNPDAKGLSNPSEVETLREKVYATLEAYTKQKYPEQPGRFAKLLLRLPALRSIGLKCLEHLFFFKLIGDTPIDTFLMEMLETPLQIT
Source text: as §3, §4

COC(=O)C(Cc1ccccc1)NC(=O)[C@H](CC(=O)OC/C=C(C)/C=C/C=C(C)/C=C/C1=C(C)CCCC1(C)C)NC=O (stereo partly drawn) [retinol-(N-formyl-aspartam), (2E,4E,6E,8E)-3,7-dimethyl-9-(2,6,6-trimethyl-1-cyclohexenyl)-2,4,6,8-nonatetraenyl(3S)-4-[(1-benzyl-2-methoxy-2-oxoethyl)amino]-3-formylamino-4-oxobutanoate]
cell toxicity (inhibition of cell proliferation) (HCT116 (colon cancer)): less toxicity than retinol | cell toxicity (inhibition of cell proliferation) (HaCAT (skin cancer)): no toxicity | cell toxicity (inhibition of cell proliferation) [1]: no toxicity | cell toxicity (inhibition of cell proliferation) (SK-Hep-1 (liver cancer)): no toxicity | activation of retinoid X receptor α (retinoid X receptor α): no activation | activation of retinoid X receptor β (retinoid X receptor β): no activation | activation of retinoid X receptor γ (retinoid X receptor γ): no activation
